According to patent US8030345B2, “Tricyclic pyrazole derivatives as cannabinoid receptor modulators” (Cadila Healthcare Limited, priority 2004, dated 2011):

What follows are compounds tested on rat (assay: Intake of 5% sucrose solution in rat model). Conditions: intake of 5% sucrose solution in animal model (rat).
Type: in vivo
Source text: Compounds of the present invention in the cAMP accumulation model, antagonizes the WIN-55, 212-2 inhibition of forskolin-induced cAMP accumulation in hCB1-CHO cells [J Pharmacol. Exp Ther., 1998, 284, 291-297]. In a mouse vas deferens preparation, representative compounds cause rightward shift of the WIN-55, 212-2 concentration-response curve (Eur. J. Pharm. 1995, 284, 241-247). Representative compounds of the present invention have shown decrease in sucrose solution intake in rat model (Table 1) [Psychopharmacology, 1997, 132, 104-106].

**Q.** `O=C(NN1CCC(O)CC1)c1nn(-c2ccc(Cl)cc2Cl)c2c1CCOc1cc(Cl)ccc1-2` [Compound 3] was tested. Which “Reduction in sucrose solution consumption w.r.t. control animals” value (from here on “Reduction”) did it give?
**A.** −18.9 ± 14.0

**Q.** `O=C(NN1CC2CCCC2C1)c1nn(-c2ccc(Cl)cc2Cl)c2c1CCOc1cc(Cl)ccc1-2` (centres unmarked) [Compound 5, 8-chloro-1-(2,4-dichloro-phenyl)-4,5-dihydro-1H-6-oxa-1,2-diaza-benzo [e] azulene-3-carboxylic acid (hexahydro-cyclopenta[c]pyrrol-2-yl)-amide] was tested. Which “Reduction” value did it give?
**A.** −23.2 ± 11.4

**Q.** For `O=C(NN1CCOCC1)c1nn(-c2ccc(Cl)cc2Cl)c2c1CCOc1cc(Cl)ccc1-2` [Compound 6, 8-chloro-1-(2,4-dichloro-phenyl)-4,5-dihydro-1H-6-oxa-1,2-diaza-benzo [e] azulene-3-carboxylic acid morpholine-4-yl-amide], which “Reduction” value is on record?
**A.** −24.9 ± 8.9

**Q.** Which “Reduction” value does the source give for `O=C(NN1CCCCC1)c1nn(-c2ccc(Cl)cc2)c2c1CCOc1cc(Cl)ccc1-2` [Compound 8, 8-chloro-1-(4-chloro-phenyl)-4,5-dihydro-1H-6-oxa-1,2-diaza-benzo [e] azulene-3-carboxylic acid piperidin-1-ylamide] here?
**A.** −30.4 ± 4.3

**Q.** `O=C(NN1CCCCC1)c1nn(-c2ccc(Cl)cc2Cl)c2c1CCCc1sc(Cl)cc1-2` [Compound 16] was tested. Which “Reduction” value did it give?
**A.** −13.2 ± 15.7
